For the assay, the system named is YAP-TEAD interaction. Put plainly: SK-HEP-1 reporter assay (8xTEAD responsive elements driving NanoLuc luciferase). The class given is cell-based. The settings on record: Homo sapiens, SK-HEP1, SK-HEP-1 reporter assay. As for the experimental part:
To identify inhibitors of YAP-TEAD interaction, 8×TEAD responsive elements driving the NanoLuc® luciferase gene were stably integrated into SK-HEP-1 cells (ECACC #: 91091816).
For the assay, cells were treated in duplicates with the test compounds in a 10-point dose, with the top concentration starting at 30 μM (final concentration in assay). After a 24 hour incubation at 37° C., 95% rH, and 5% CO2, a luciferase substrate/lysis reagent mix (NanoGlo™, Promega) was added to the cells, allowing the quantification of cellular luciferase activity.
Cell Media: The cells were cultured in the following media: MEM, +10% FBS, +1× GlutaMAX, +1 mM Sodium-Pyruvate, +100 μM Non-essential amino acids, +0.1 mg/ml Hygromycin. The media used for the assay was: MEM (w/o Phenol Red), +10% FBS, +1× GlutaMAX, +1 mM Sodium-Pyruvate, +100 μM Non-essential amino acids, +0.5% Pen/Strep
Reagents: The reagents used are listed below:
Cell culture: The cells were examined using an inverted microscope to check for health and cell density. To dissociate adherent cells, the monolayer of cells was washed once with pre-warmed PBS. After removing the PBS, 3 ml pre-warmed Accutase® was added to a F75 flask, dispersed evenly and the flask was allowed to sit in incubator for ˜4-5 minutes.
When a single cell suspension was obtained, 7 ml of prewarmed growth media was added and resuspended with the cells. The cell suspension was transferred to a sterile 15 ml conical centrifuge tube, and spun for 5 min at 300×g, RT. The supernatant was discarded and the pellet was resuspended in 10 ml of pre-warmed growth media.
The total cell count was determined, and 20 μl of the desired cell number was added to each well of a 384 well plate using a Multidrop Combi. The plates were then incubated for 24 hours at 37° C., 95% rH, and 5% C02.
Compound treatment: 24 hours after seeding, the cells were treated with compounds.
A 1:333 dilution of compounds, diluted in DMSO, was made to get a final concentration of 0.3% DMSO per well. To transfer the compounds to the assay plate, […] was shot from Labcyte low dead volume plates to the cell plates containing 20 μl media/well with the ECHO 555 liquid handling system.
After treatment, the cells were fed with 20 μl fresh pre-warmed assay media using a Multidrop combi.
The assay plates were then incubated for another 24 h at 37° C., 95% rH, and 5% CO2.
Luciferase readout: 24 h after treatment, the plates were taken out of the incubator and were allowed to equilibrate to RT. 30 μl of NanoGlo® reagent was added to the plates in the dark. Plates were shaken for 20 min on a Teleshake (˜1500 rpm) in the dark. The luminescence was then measured using an EnVision microplate reader. The IC50 values were generated using Genedata Screener®.
In general terms: A reporter such as luciferase makes a cellular process visible.

Structures can show the parent of a compound that is named as a salt.

As to `Cn1cc2c3cc(C(N)=O)cnc3n(-c3ccc(C(F)(F)F)cc3)c2n1` [Example C118, 4-methyl-7-[4-(trifluoromethyl)phenyl]-4,5,7,9-tetraazatricyclo[6.4.0.0^2,6]dodeca-1(8),2,5,9,11-pentaene-11-carboxamide], under “class symbols”, the IC50 (in general, the concentration needed to halve the response being measured) was 100 to 10000 nM.
In the case of `C[C@H](NC(=O)c1ccc2c(c1)c1cn(C)nc1n2-c1ccc(C(F)(F)F)cc1)c1ccncc1` [Example C127, 2-methyl-N-[(1S)-1-(pyridin-4-yl)ethyl]-8-[4-(trifluoromethyl)phenyl]-2H,8H-pyrazolo[3,4-b]indole-5-carboxamide], the half-inhibitory concentration (IC50) (class symbols) lay within 100 to 10000 nM.
Same read-out and setting: as for `Cn1cnc2c1c1cc(CO)ccc1n2-c1ccc(C(F)(F)F)cc1` [Example C132, {1-methyl-4-[4-(trifluoromethyl)phenyl]-1H,4H-imidazo[4,5-b]indol-7-yl}methanol], the figure is 100 to 10000 nM.
Where the note is “class symbols”, `Cn1cc2c3cc(C(=O)NC[C@H](O)C(F)(F)F)ccc3n(-c3ccc(C(F)(F)F)cc3)c2n1` [Example C133, 2-methyl-N-[(2S)-3,3,3-trifluoro-2-hydroxypropyl]-8-[4-(trifluoromethyl)phenyl]-2H,8H-pyrazolo[3,4-b]indole-5-carboxamide] came in with a half-inhibitory concentration (IC50) of 100 to 10000 nM.
In turn, `Cn1cc2c3cc(C(=O)NC[C@@H](O)C(F)(F)F)ccc3n(-c3ccc(C(F)(F)F)cc3)c2n1` [Example C135, 2-methyl-N-[(2R)-3,3,3-trifluoro-2-hydroxypropyl]-8-[4-(trifluoromethyl)phenyl]-2H,8H-pyrazolo[3,4-b]indole-5-carboxamide] displayed a concentration for half-maximal inhibition (IC50) (class symbols) of 100 to 10000 nM.
In the case of `CCN1CCC(NC(=O)c2ccc3c(c2)c2cn(C)nc2n3-c2ccc(C(F)(F)F)cc2)CC1` [Example C136, N-(1-ethylpiperidin-4-yl)-2-methyl-8-[4-(trifluoromethyl)phenyl]-2H,8H-pyrazolo[3,4-b]indole-5-carboxamide trifluoroacetate], for the setting “class symbols”, the IC50 was in the range of 100 to 10000 nM.
Still for that read-out and setting: the figure for `Cn1cc2c3cc(C(=O)N=S4(=O)CCC5(CCNCC5)C4)ccc3n(-c3ccc(C(F)(F)F)cc3)c2n1` (centres unmarked) [Example C138, 2-methyl-N-{2-oxo-2lambda6-thia-8-azaspiro[4.5]decan-2-ylidene}-8-[4-(trifluoromethyl)phenyl]-2H,8H-pyrazolo[3,4-b]indole-5-carboxamide] is 100 to 10000 nM; for `Cn1cc2c3cc(C(=O)N=S4(=O)CCC(C)(N)CC4)ccc3n(-c3ccc(C(F)(F)F)cc3)c2n1` (centres unmarked) [Example C139, N-(4-amino-4-methyl-1-oxo-1lambda6-thian-1-ylidene)-2-methyl-8-[4-(trifluoromethyl)phenyl]-2H,8H-pyrazolo[3,4-b]indole-5-carboxamide] it is 100 to 10000 nM.
As to `Cn1cc2c3cc(C(=O)NCCOC4CCNC4)ccc3n(-c3ccc(C(F)(F)F)cc3)c2n1` (centres unmarked) [Example C142, 2-methyl-N-[2-(pyrrolidin-3-yloxy)ethyl]-8-[4-(trifluoromethyl)phenyl]-2H,8H-pyrazolo[3,4-b]indole-5-carboxamide], the IC50 (class symbols) was in the range of 100 to 10000 nM.
Take `Cn1cc2c3cc(C(=O)N=S4(=O)CCC5(CC4)CC(N)CCO5)ccc3n(-c3ccc(C(F)(F)F)cc3)c2n1` (centres unmarked) [Example C143, N-{4-amino-9-oxo-1-oxa-9lambda6-thiaspiro[5.5]undecan-9-ylidene}-2-methyl-8-[4-(trifluoromethyl)phenyl]-2H,8H-pyrazolo[3,4-b]indole-5-carboxamide]: under “n.d. = value not detectable below threshold given in parentheses, ND = not determinable within the entire range”, the IC50 was more than 3200 nM.
Regarding `C[C@H](NC(=O)c1ccc2c(c1)c1cn(C)nc1n2-c1ccc(C(F)(F)F)cc1)C1CNC1` [Example C144, N-[(1S)-1-(azetidin-3-yl)ethyl]-2-methyl-8-[4-(trifluoromethyl)phenyl]-2H,8H-pyrazolo[3,4-b]indole-5-carboxamidetrifluoroacetate], the IC50 (class symbols) was in the range of 100 to 10000 nM.
In turn, `CC(N)CS(C)(=O)=NC(=O)c1ccc2c(c1)c1cn(C)nc1n2-c1ccc(C(F)(F)F)cc1` (centres unmarked) [Example C145, N-[(2-aminopropyl)(methyl)oxo-λ^6-sulfanylidene]-2-methyl-8-[4-(trifluoromethyl)phenyl]-2H,8H-pyrazolo[3,4-b]indole-5-carboxamide] yielded an IC50 (class symbols) of 100 to 10000 nM.
On the same count and under the same terms, as for `COCCS(=O)(CCN)=NC(=O)c1ccc2c(c1)c1cn(C)nc1n2-c1ccc(C(F)(F)F)cc1` (centres unmarked) [Example C146, N-[(2-aminoethyl)(2-methoxyethyl)oxo-λ^6-sulfanylidene]-2-methyl-8-[4-(trifluoromethyl)phenyl]-2H,8H-pyrazolo[3,4-b]indole-5-carboxamide], the figure is 100 to 10000 nM; as for `Cn1cc2c3cc(C(=O)N4CC[C@@H](O)C4)ccc3n(-c3ccc(C(F)(F)F)cn3)c2n1` [Example C152, (3R)-1-{2-methyl-8-[5-(trifluoromethyl)pyridin-2-yl]-2H,8H-pyrazolo[3,4-b]indole-5-carbonyl}pyrrolidin-3-ol], more than 10000 nM.
Where the note is “class symbols”, `C[C@H](CO)C(=O)Nc1ccc2c(c1)c1cn(C)nc1n2-c1ccc(C(F)(F)F)cc1` [Example C154, (2R)-3-hydroxy-2-methyl-N-{2-methyl-8-[4-(trifluoromethyl)phenyl]-2H,8H-pyrazolo[3,4-b]indol-5-yl}propanamide] showed an IC50 of 100 to 10000 nM.
As for `C[C@H](CO)NC(=O)c1ccc2c(c1)c1cn(C)nc1n2-c1ccc(F)cc1` [Example C155, 8-(4-fluorophenyl)-N-[(2R)-1-hydroxypropan-2-yl]-2-methyl-2H,8H-pyrazolo[3,4-b]indole-5-carboxamide], where the note is “class symbols”, the IC50 was in the range of 100 to 10000 nM.
The compound `Cn1cnc2c1c1cc(C3CC(Br)=NO3)ccc1n2-c1ccc(C(F)(F)F)cc1` (centres unmarked) [Example C158, 3-bromo-5-{1-methyl-4-[4-(trifluoromethyl)phenyl]-1H,4H-imidazo[4,5-b]indol-7-yl}-4,5-dihydro-1,2-oxazole] had an IC50 (class symbols) of 100 to 10000 nM.
Regarding `CC(NC(=O)c1ccc2c(c1)c1cn(C)nc1n2-c1ccc(C(F)(F)F)cc1)c1cccc(NC(=O)OC(C)(C)C)n1` (centres unmarked) [Example C165, tert-butyl N-{6-[1-({2-methyl-8-[4-(trifluoromethyl)phenyl]-2H,8H-pyrazolo[3,4-b]indol-5-yl}formamido)ethyl]pyridin-2-yl}carbamate], for the setting “class symbols”, the IC50 is 100 to 10000 nM.
Under “class symbols”, `Cn1cc2c3cc(C(=O)N4CC[C@@H](O)C4)ccc3n(-c3ccc(C(F)(F)F)c(F)c3)c2n1` [Example C171, (3R)-1-{8-[3-fluoro-4-(trifluoromethyl)phenyl]-2-methyl-2H,8H-pyrazolo[3,4-b]indole-5-carbonyl}pyrrolidin-3-ol] displayed a half-maximal inhibitory concentration (IC50) of 100 to 10000 nM.
In turn, `Cn1cc2c3cc(C(=O)N=S4(=O)CC(C#N)C4)ccc3n(-c3ccc(C(F)(F)F)cc3)c2n1` (centres unmarked) [Example C178, N-(3-cyano-1-oxo-1¿6-thietan-1-ylidene)-2-methyl-8-[4-(trifluoromethyl)phenyl]-2H,8H-pyrazolo[3,4-b]indole-5-carboxamide] registered a concentration for half-maximal inhibition (IC50) (class symbols) of 100 to 10000 nM.
Regarding `C=Cc1ccc2c(c1)c1c(ncn1C)n2-c1ccc(C(F)(F)F)cc1` [Example C179, 7-ethenyl-1-methyl-4-[4-(trifluoromethyl)phenyl]-1H,4H-imidazo [4,5-b]indole], the IC50 (class symbols) was in the range of 100 to 10000 nM.
As to `[2H]C1([2H])C(n2c3ccc(C(=O)N[C@H](C)CO)cc3c3cn(C)nc32)C([2H])([2H])C([2H])([2H])C([2H])([2H])C1([2H])[2H]` [Example C197], the IC50 (class symbols) was 100 to 10000 nM.
Same read-out and setting: the figure for `Cn1cc2c3cc(C(=O)NC4CCNCC4)ccc3n(-c3ccc(C(F)(F)F)cc3)c2n1` [Example C203, 2-methyl-N-(piperidin-4-yl)-8-[4-(trifluoromethyl)phenyl]-2H,8H-pyrazolo[3,4-b]indole-5-carboxamide trifluoroacetate] is 100 to 10000 nM.
Take `Cn1cc2c3cc(C(N)=O)ccc3n(C3CC4(C3)CC(F)(F)C4)c2n1` [Example C205, 8-{6,6-difluorospiro[3.3]heptan-2-yl}-2-methyl-2H,8H-pyrazolo[3,4-b]indole-5-carboxamide]: where the note is “class symbols”, the half-maximal inhibitory concentration (IC50) lay within 100 to 10000 nM.
Turning to `CNC(=O)c1ccc2c(c1)c1cn(C)nc1n2C1CC2(C1)CC(F)(F)C2` [Example C206, 8-{6,6-difluorospiro[3.3]heptan-2-yl}-N,2-dimethyl-2H,8H-pyrazolo[3,4-b]indole-5-carboxamide], for the setting “class symbols”, the half-maximal inhibitory concentration (IC50) was in the range of 10 to 100 nM.
For the compound `C[C@H](CO)NC(=O)c1ccc2c(c1)c1cn(C)nc1n2C1CC2(C1)CC(F)(F)C2` [Example C207, 8-{6,6-difluorospiro[3.3]heptan-2-yl}-N-[(2R)-1-hydroxypropan-2-yl]-2-methyl-2H,8H-pyrazolo[3,4-b]indole-5-carboxamide], the IC50 (class symbols) was 100 to 10000 nM.
